Test results published in patent US20110268699A1, “METHODS FOR TREATING MULTIPLE SCLEROSIS USING TETRACYCLIC PYRAZINOINDOLES” (BIOVISTA, INC., priority 2008, published 2011).
Where two headings read alike, the source gives them in different places.

Experiments:
[1] = steady-state, trough sample (pre-dose), on average; cited from earlier work
[2] = tested on: MOG-induced EAE in female C57BL/6J mice; format: in vivo, mouse
Description: Acute EAE Murine Model. […] The MOG murine model consists of a sensitization period, induced by the single subcutaneous (SC) injection of MOG emulsified in Complete Freund's Adjuvant (CFA) on study days 0 and 6, followed by IP supplemental immunostimulation with Pertussis Toxin (PT) carried out once at the time of EAE induction and once again 48 hours later.
Briefly, the study is performed in female C57BL/6J mice (Harlan Laboratories Israel, Ltd.) as young adults, 8-9 weeks of age at study initiation. animals are acclimatized to laboratory conditions at least 5 days. During acclimation and throughout the entire study duration, animals are housed in groups of 10 mice maximum in polypropylene cages, which are fitted with solid bottoms and filled with wood shavings as bedding material. Animals are provided ad libitum a commercial rodent diet and free access to drinking water, supplied to each cage via polyethylene bottles with stainless steel sipper tubes. Water is monitored periodically. Automatically controlled environmental conditions are set to maintain temperature at 20-24° C. with a relative humidity (RH) of 30-70%, a 12:12 hour light: dark cycle and 15-30 air changes/hr in the study room. Temperature and RH are monitored daily. The light cycle is monitored by the control clock. Weight variation of animals at the time of treatment initiation should not exceed ±20% of the mean weight. At the end of the study, surviving animals are euthanized by CO2 asphyxiation.
Antigen. […] This concentration is appropriate for the selected dose and dose volume of 200 μg MOG in 100 μL PBS.
MOG/CFA Emulsion. Prior to each inoculation carried out on study days 0 and 6, 100 μl of MOG solution (200 μg) is emulsified with 100 μl of CFA suspension (300 μg heat killed Mycobacterium Tuberculosis H37 Ra). […]
Initially, all animals are examined for signs of any neurological responses and symptoms prior to EAE induction (study day 0) and are examined on a daily basis throughout the 35-day observation period. EAE reactions are scored and recorded according to a 0-15 scale Clinical signs Scoring Methods. […]

[3] = tested on: MOG-induced EAE in female C57BL/6J mice; assay: Histological analysis of spinal cord (H&E) of EAE mice: severity score and white matter damage; format: in vivo, mouse
From the text: EXAMPLE. Histological Analysis of mice treated with pirlindole (BVA-201). Briefly, all samples are longitudinal sections of the vertebral column and spinal cord stained with hematoxylin and eosin (H&E). Sample A is the cranial part of the vertebral column and sample B is the caudal part. The modifiers F-focal, MF-multifocal, and D-diffuse are used to describe the distribution of inflammatory cellular infiltration. Diffuse is used when the lesion is continuous (at least on one side) and affects the entire SC. In some cases the lesion affects the entire SC (100%) but its distribution is multifocal because it is not contiguous i.e. there are small unaffected segments on one side, which are affected on the contralateral side. Histology analysis refers to 2 parameters: (a) Severity Score which is referring mainly but not limited to infiltration on inflammatory cells; and (b) White Matter Damage (WMD). Codes: Dist—distribution; GM—gray matter; IC—inflammatory cells; ND—not done; SC—spinal cord; Sev—severity; WM—white matter; WMD—white matter damage; WNL—within normal limits. Severity scores 0—WNL, 1—minimal, 2—mild, 3—moderate, 4—severe. Half grades are also used. Severity refers to the amount of inflammatory infiltration and WMD. If there is a discrepancy in the grade of these 2 changes, then this is noted. The extent of WMD is indicated in percentage referring to the amount of affected spinal cord tissue in the sample. In many cases the damage affected one side (dorsal or ventral) of the SC only. In some cases, when the plane of section is more lateral the WMD affects both sides. The available SC sample is considered 100%. Thus, if in a 5 cm long SC, there are changes in a 0.5 cm long segment, then this was noted as 10% irrespective of whether the damage affected one side or both. Although not reflected in the percentage, the extent of the lesion is taken into consideration in evaluation of the severity. WMD describes a set of changes including vacuolation, gliosis, and presence of myelin debris. […]

Row | SMILES | Metabolite concentration as share of the clozapine concentration in plasma [1] [%] | Activity on EAE clinical score compared to the vehicle-only treatment group (A) ([2]; group C, 1.0 mg/kg IP once daily, at the end of the study) | Activity on EAE clinical score compared to the vehicle-only treatment group (A) ([2]; group C, 1.0 mg/kg IP once daily, intermediate time points on days 30, 31, and 32, p<0.05) | Activity on EAE clinical score compared to the vehicle-only treatment group (A) ([2]; group E, 10 mg/kg IP once daily from day 0, p<0.01, starting at day 15 and continuing throughout the study (day 23, p<0.05), FIG. 1) | Demyelination / myelin repair compared to the vehicle-only treatment group ([3]; BVA-201 treatment group, general statement) | Histology mean % of white matter damage (WMD) ([3]; group F, 30 mg/kg IP, FIG. 5) | Histology mean group severity score (inflammatory infiltration) versus vehicle ([3]; groups C (1 mg/kg) and F (30 mg/kg) IP, FIG. 3)
1 | Clc1ccc2c(c1)N=C(N1CCNCC1)c1ccccc1N2 [Norclozapine] | ~70 | – | – | – | – | – | –
2 | Cc1ccc2c(c1)c1c3n2CCNC3CCC1 (stereo not shown) [Pirlindole, 2,3,3a,4,5,6-hexahydro-8-methyl-1H-pyrazino[3,2,1-j,k]carbazole] | – | not statistically significant | statistically significant | statistically significant | one or more of (a) less demyelination, (b) improved myelin repair, and/or (c) remyelination | significant protective effect | No difference
